Assay results reported in PubChem BioAssay (NCI).
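Interpolation was linear, between the two tested concentrations surrounding the appropriate level; five concentrations were tested over 48 hours in 96-well plates. TGI: total growth inhibition.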

Experiments:
Assay in all cases: NCI-60 cell line screen, 48 h
[1] = tested on: NCI-H226 lung
[2] = tested on: MALME-3M melanoma
[3] = tested on: SN12C renal
[4] = tested on: ACHN renal
[5] = tested on: UACC-62 melanoma
[6] = tested on: TK-10 renal
[7] = tested on: RPMI-8226 leukemia
[8] = tested on: MOLT-4 leukemia
[9] = tested on: UACC-257 melanoma
[10] = tested on: SF-268 CNS
[11] = tested on: OVCAR-5 ovarian
[12] = tested on: UO-31 renal
[13] = tested on: OVCAR-8 ovarian
[14] = tested on: NCI-H460 lung
[15] = tested on: COLO 205 colon
[16] = tested on: XF 498 CNS
[17] = tested on: LOX IMVI melanoma
[18] = tested on: CCRF-CEM leukemia
[19] = tested on: SK-MEL-2 melanoma
[20] = tested on: HCT-15 colon
[21] = tested on: HL-60(TB) leukemia
[22] = tested on: DLD-1 colon
[23] = tested on: M14 melanoma
[24] = tested on: LXFL 529 NSCLC
[25] = tested on: K-562 leukemia
[26] = tested on: 786-0 renal
[27] = tested on: HOP-18 NSCLC
[28] = tested on: DMS 273 small cell lung
[29] = tested on: HCC-2998 colon
[30] = tested on: SR leukemia
[31] = tested on: KM12 colon
[32] = tested on: HT29 colon
[33] = tested on: SNB-75 CNS
[34] = tested on: OVCAR-4 ovarian
[35] = tested on: HCT-116 colon
[36] = tested on: OVCAR-3 ovarian
[37] = tested on: IGROV1 ovarian
[38] = tested on: A549 NSCLC
[39] = tested on: RXF 393 renal
[40] = tested on: SF-539 CNS
[41] = tested on: SF-295 CNS
[42] = tested on: NCI-H522 lung
[43] = tested on: SK-OV-3 ovarian
[44] = tested on: SK-MEL-5 melanoma
[45] = tested on: DMS 114 small cell lung
[46] = tested on: SNB-78 CNS
[47] = tested on: M19-MEL melanoma
[48] = tested on: SNB-19 CNS
[49] = tested on: SK-MEL-28 melanoma
[50] = tested on: NCI-H23 lung
[51] = tested on: KM20L2 colon
[52] = tested on: HOP-62 NSCLC
[53] = tested on: SW-620 colon
[54] = tested on: U251 CNS
[55] = tested on: CAKI-1 renal
[56] = tested on: A498 renal

In the case of `COc1cc(C2c3cc4c(cc3[C@H](NS(C)(=O)=O)C3COC(=O)[C@H]23)OCO4)cc(OC)c1OC` (stereo not given in full), the TGI [1] is reported as 0.625 µM, the TGI [2] is reported as > 100 µM and the TGI [3] is reported as > 100 µM. For the same compound, the TGI [4] was > 100 µM, the TGI [5] was > 100 µM and the TGI [6] was > 100 µM. The TGI [7] was 46.3 µM, the TGI [8] was 18.5 µM and the TGI [9] was > 100 µM. For the same compound, the TGI [10] was > 100 µM, the TGI [11] was > 100 µM and the TGI [12] was > 100 µM. The TGI [13] was > 100 µM, the TGI [14] was > 100 µM and the TGI [15] was 0.436 µM. For the same compound, the TGI [16] was > 100 µM, the TGI [17] was > 100 µM and the TGI [18] was > 100 µM. For the same compound, the TGI [19] was > 100 µM, the TGI [20] was > 100 µM and the TGI [21] was 0.883 µM. For the same compound, the TGI [22] was > 100 µM, the TGI [23] was > 100 µM and the TGI [24] was > 100 µM. The TGI [25] was > 100 µM, the TGI [26] was > 100 µM and the TGI [27] was > 100 µM. For the same compound, the TGI [28] was > 100 µM, the TGI [29] was > 100 µM and the TGI [30] was > 100 µM. The TGI [31] was > 100 µM and the TGI [32] was > 100 µM.

With `CCOP12(OCC)NC(=O)OC1(C(F)(F)F)c1ccccc1O2` (stereo not given) the TGI [1] was > 100 µM, the TGI [33] was > 100 µM and the TGI [2] was > 100 µM. The TGI [3] was > 100 µM, the TGI [34] was > 100 µM and the TGI [35] was > 100 µM. The TGI [36] was > 100 µM, the TGI [37] was > 100 µM and the TGI [38] was > 100 µM. For the same compound, the TGI [4] was > 100 µM, the TGI [39] was > 100 µM and the TGI [5] was > 100 µM. The TGI [6] was > 100 µM, the TGI [40] was > 100 µM and the TGI [41] was > 100 µM. The TGI [8] was > 100 µM, the TGI [9] was > 100 µM and the TGI [10] was > 100 µM. The TGI [12] was > 100 µM, the TGI [13] was > 100 µM and the TGI [14] was > 100 µM. The TGI [17] was > 100 µM, the TGI [42] was > 100 µM and the TGI [18] was > 100 µM. The TGI [19] was > 100 µM, the TGI [43] was > 100 µM and the TGI [44] was > 100 µM. The TGI [20] was > 100 µM, the TGI [21] was > 100 µM and the TGI [22] was > 100 µM. For the same compound, the TGI [23] was > 100 µM, the TGI [45] was > 100 µM and the TGI [46] was > 100 µM. The TGI [47] was > 100 µM, the TGI [24] was > 100 µM and the TGI [25] was > 100 µM. The TGI [26] was > 100 µM, the TGI [27] was > 100 µM and the TGI [48] was > 100 µM. The TGI [49] was > 100 µM, the TGI [28] was > 100 µM and the TGI [50] was > 100 µM. For the same compound, the TGI [31] was > 100 µM and the TGI [32] was > 100 µM.

With `CCOC(=O)NC/C=C/COC1CCCCO1` (stereo not given) the TGI [1] was > 100 µM, the TGI [33] was > 100 µM and the TGI [2] was > 100 µM. The TGI [3] was > 100 µM, the TGI [34] was > 100 µM and the TGI [35] was > 100 µM. The TGI [37] was > 100 µM, the TGI [38] was > 100 µM and the TGI [4] was > 100 µM. For the same compound, the TGI [39] was > 100 µM, the TGI [5] was > 100 µM and the TGI [6] was > 100 µM. The TGI [40] was > 100 µM, the TGI [7] was > 100 µM and the TGI [51] was > 100 µM. The TGI [8] was > 100 µM, the TGI [9] was > 100 µM and the TGI [10] was > 100 µM. For the same compound, the TGI [52] was > 100 µM, the TGI [12] was > 100 µM and the TGI [13] was > 100 µM. The TGI [14] was > 100 µM, the TGI [15] was > 100 µM and the TGI [42] was > 100 µM. For the same compound, the TGI [53] was > 100 µM, the TGI [18] was > 100 µM and the TGI [19] was > 100 µM. For the same compound, the TGI [43] was > 100 µM, the TGI [54] was > 100 µM and the TGI [44] was > 100 µM. The TGI [20] was > 100 µM, the TGI [21] was > 100 µM and the TGI [55] was > 100 µM. The TGI [22] was > 100 µM, the TGI [23] was > 100 µM and the TGI [45] was > 100 µM. The TGI [46] was > 100 µM, the TGI [47] was > 100 µM and the TGI [24] was > 100 µM. For the same compound, the TGI [25] was > 100 µM, the TGI [26] was > 100 µM and the TGI [56] was > 100 µM. The TGI [27] was > 100 µM, the TGI [48] was > 100 µM and the TGI [49] was > 100 µM. The TGI [28] was > 100 µM, the TGI [29] was > 100 µM and the TGI [30] was > 100 µM. For the same compound, the TGI [31] was > 100 µM.
